pIC50: −log10 of the molar value. Like-named read-outs stand apart in the source and are kept apart here.
Key:
recombinant human VEGFR2 = target: T1, recombinant human VEGFR2 (Homo sapiens, UniProt P35968); test: 33P in vitro kinase HotSpot profiling assay, VEGFR2; assay type: biochemical
T1 construct: purchased Reaction Biology

[1] = target: T2, recombinant human CDK1/cyclin B complex (Homo sapiens, UniProt P06493); test: 33P in vitro kinase HotSpot profiling assay, CDK1/cyclin B; assay type: biochemical; details: [γ-33P]-ATP 10 µM; substrate histone H1; ten-point curves
T2 construct: purchased Reaction Biology
T2 sequence (P06493 whole entry): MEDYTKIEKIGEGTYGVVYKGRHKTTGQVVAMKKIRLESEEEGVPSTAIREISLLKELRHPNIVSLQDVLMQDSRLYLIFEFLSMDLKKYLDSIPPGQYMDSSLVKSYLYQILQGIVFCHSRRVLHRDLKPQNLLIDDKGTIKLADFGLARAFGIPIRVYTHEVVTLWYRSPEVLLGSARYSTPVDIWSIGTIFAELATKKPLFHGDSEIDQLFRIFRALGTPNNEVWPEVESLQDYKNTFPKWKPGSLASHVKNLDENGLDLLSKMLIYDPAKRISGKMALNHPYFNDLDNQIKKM
T2 sequence (P14635 whole entry partner): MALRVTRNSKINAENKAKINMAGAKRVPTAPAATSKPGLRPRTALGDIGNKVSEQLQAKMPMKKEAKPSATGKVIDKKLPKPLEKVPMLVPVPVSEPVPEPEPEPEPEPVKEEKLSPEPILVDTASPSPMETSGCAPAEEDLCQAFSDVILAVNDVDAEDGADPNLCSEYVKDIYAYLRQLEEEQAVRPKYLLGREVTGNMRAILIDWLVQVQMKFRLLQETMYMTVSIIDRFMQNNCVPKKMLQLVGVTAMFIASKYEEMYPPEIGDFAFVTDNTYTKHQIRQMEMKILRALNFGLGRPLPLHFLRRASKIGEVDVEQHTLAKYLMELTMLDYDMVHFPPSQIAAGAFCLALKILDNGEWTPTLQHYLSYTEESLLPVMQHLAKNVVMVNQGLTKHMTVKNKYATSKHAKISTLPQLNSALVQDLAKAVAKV

VEGFR2 = test: Immunoblot of VEGF-A-stimulated VEGFR2 activation and downstream signaling in HUVECs; assay type: cell-based, human
Procedure: (§1) All experiments were conducted at <6 cell passages.
(§2) Figure 2 JK-31 inhibits growth factor-stimulated receptor activation and downstream signal transduction. (A) HUVECs were pre-treated with JK-31 (0, 0.1, 1, 10 or 50 µM) for 30 min followed by 7.5 min stimulation with VEGF-A (25 ng/ml) in the presence of JK-31. Total cell lysates were prepared and processed for immunoblotting. Levels of phosphorylated VEGFR2, PLCγ1, Akt and ERK were analysed using phospho-specific antibodies. Membranes were stripped and re-probed for total protein levels and a loading control (α-tubulin). (B) Densitometric quantification of phosphorylated VEGFR2-pY1175 levels in response to VEGF-A and JK-31 treatment. Error bars represent ± SEM (n = 4; ***p<0.001). (C-D) JK-31 inhibits FGF-stimulated intracellular signaling in endothelial cells. HUVECs were pre-treated with JK-31 (0, 0.1, 1, 10 or 50 µM) for 30 min followed by 10 min stimulation with either (C) bFGF (50 ng/ml) or (D) aFGF (50 ng/ml) in the presence of JK-31. Cells were lysed and processed for immunoblotting. Representative immunoblots of three independent experiments are shown.

[2] = tested on: FGF-stimulated intracellular signaling; test: Immunoblot of FGF (aFGF, bFGF)-stimulated ERK1/2 phosphorylation in HUVECs; assay type: cell-based, human; details: JK-31 0.1-50 µM
Procedure: as §1, §2

IGF-1-mediated signaling = test: Immunoblot of IGF-1-mediated signaling in HUVECs; assay type: cell-based, human; details: JK-31 0.1-50 µM, IGF-1 100 ng/ml 10 min
Procedure: as §1
Supplementary file pone.0110997.s006.tif: Figure S6 Relative specificity of JK-31 for the VEGF-A-VEGFR2 signaling pathway. […] HUVECs were pre-treated with JK-31 (0, 0.1, 1, 10 or 50 µM) for 30 min followed by a 10 min stimulation with either (A) EGF (50 ng/ml) or (B) IGF-1 (100 ng/ml) in the presence of JK-31. Total cell lysates were prepared and processed for immunoblotting. Levels of phosphorylated Akt and ERK1/2 were analysed using phospho-specific antibodies. Membranes were stripped and re-probed for total protein levels and a loading control (α-tubulin). Representative immunoblots of three independent experiments are shown. (TIF) Click here for additional data file.

[3] = tested on: mouse aortic ring explants; test: Ex vivo murine aortic ring angiogenesis assay; assay type: cell-based; details: 10 µM and above, six days, Matrigel
Procedure: Three male five-month old wild type C57Bl/6 mice were humanely sacrificed followed by cervical dislocation. A thoraco-abdominal incision was made and the heart and aorta excised and stored in Hank's balanced buffer. The aortas were cleaned by removing connective tissue and adventitia from the exterior and each aorta was cut into 18–24 rings. Ring explants were embedded into growth-factor reduced Matrigel basement membrane matrix (Beckton Dickinson) in a 24-well plate and incubated for 45 min at 37°C to allow the Matrigel to set and the rings to adhere. […] Rings were photographed and the degree of sprouting measured using Cell∧B imaging software (Olympus, Tokyo, Japan). The mean of the three longest angiogenic sprouts on each ring was measured.
Figure 3 JK-31 inhibits angiogenesis in an ex vivo murine model and in vitro. […] (B) Absolute quantification of angiogenic sprout length. For each aortic ring, the mean of three longest sprouts was calculated. […] (D) Fluorescence microscopy analysis of endothelial cell phenotypes and filopodia formation during tubulogenesis in the presence of VEGF-A and JK-31. […] Quantification of (F) mean tubule branch length and (G) mean number of tubule branch points in response to JK-31 and exogenous growth factors. Light micrograph fields were chosen at random and quantification performed using Image J software. […]

HUVECs [4] = test: Organotypic tubulogenesis assay (HUVEC-fibroblast co-culture); assay type: cell-based, human; details: for inhibition at 10 µM / inhibition at 50 µM: Homo sapiens, HUVEC
Procedure: This assay was performed as previously described, [27]. Primary human foreskin fibroblasts (pHFF) were a gift from Gareth Howell (University of Leeds, UK) and were cultured routinely in DMEM containing 10% (v/v) FBS up to passage 10. In co-culture with HUVECs, the medium was replaced for endothelial cell growth medium (Promocell, Heidelberg, Germany).
Figure 3 JK-31 inhibits angiogenesis in an ex vivo murine model and in vitro. (A) Effects of JK-31 on ex vivo angiogenic sprouting from wild-type mouse aortic ring explants. Aortic rings were seeded onto Matrigel and treated with JK-31 (0, 1, 10 or 50 µM) for six days and imaged by phase-contrast microscopy. Freehand black lines delineate the outermost extent of sprouting. (B) Absolute quantification of angiogenic sprout length. For each aortic ring, the mean of three longest sprouts was calculated. Error bars represent ±SEM (n = 18; ***p<0.001). (C) JK-31 inhibits endothelial tube formation in vitro in response to exogenous VEGF-A. HUVECs were seeded onto a confluent layer of primary fibroblasts and treated with VEGF-A (10 ng/ml) for seven days in the presence of DMSO or JK-31 (1, 10 or 50 µM). Co-cultures were stained with CD31 antibody followed by HRP-conjugated secondary antibody and visualized by light microscopy using […] (DAB)-staining (see Materials and Methods). (D) Fluorescence microscopy analysis of endothelial cell phenotypes and filopodia formation during tubulogenesis in the presence of VEGF-A and JK-31. White arrowheads indicate vestigial lamellipodia-like structures. (E) JK-31 inhibits endothelial tube formation in vitro in response to exogenous bFGF (20 ng/ml). Treatment and processing was carried out as described above. Quantification of (F) mean tubule branch length and (G) mean number of tubule branch points in response to JK-31 and exogenous growth factors. Light micrograph fields were chosen at random and quantification performed using Image J software. Error bars represent ± SEM (n = 10; *p<0.05; **p<0.01; ***p<0.001) for each respective growth factor.

HUVECs [5] = test: Scratch wound healing assay; assay type: cell-based, human; details: 10 µM and above, 16 h
Procedure: Figure 4 JK-31 inhibits endothelial wound closure in vitro. (A) Scratch-wounded endothelial cell monolayers were incubated in either full growth medium (grey bars) or stimulated with 25 ng/ml VEGF-A (black bars) for 16 h in the presence of DMSO or JK-31 (1, 10 or 50 µM). Wounded cell monolayers were photographed before and after treatment and wound widths at each time point were measured using Image J software. Percentage wound closure was calculated by [(width before – width after)/width before] ×100. […] (B) Representative phase-contrast micrographs depicting wound closure over 16 h in the presence VEGF-A and either DMSO or JK-31 (10 µM).

HUVECs [6] = test: MTS cell viability assay; assay type: cell-based, human; details: two days (48 h), concentrations of up to 50 µM
Procedure: 2000 endothelial cells were seeded per well of a 96-well plate and cultured in ECGM overnight. ECGM was then aspirated and cells starved in MCDB131 +0.2% (w/v) BSA for 2 h. After 2 h, media was changed for ECGM with or without DMSO, plus or minus 100 nM, 1 µM, 10 µM or 50 µM JK-31 and cells incubated for 48 h. Then, 10 µl of MTS reagent (CellTiter 96 AQueous Non-Radioactive Cell Proliferation Assay, Promega, Madison, Wisconsin, USA) was added to each well after 44 h. After further incubation for 4-6 h, we monitored the color change caused by reduction of the yellow tetrazolium compound (MTS) by metabolically active cells to brown formazan. Change in color was monitored at 490 nm using a Tecan Sunrise multiwavelength 96-well plate reader (Tecan, Mannedorf, Switzerland).
(A) Relevant protein expression in HUVECs and MCF-7 cells. Total cell lysates were processed for immunoblotting. Membranes were probed with antibodies raised against VEGFR2, CDK1 and β-actin. Representative immunoblot was shown. (B) HUVECs were treated with DMSO or JK-31 (0.1, 1, 10, 50 µM) in full growth medium for 48 h followed by MTS assay and subsequent measurement of absorbance at OD490. Error bars represent ±SEM (n = 5). (TIF) Click here for additional data file.

HUVECs [7] = test: Flow cytometry analysis of cell cycle progression, endothelial cells; details: 48 h
Procedure: (§3) Cells were pelleted at 140 g at 4°C for 5 min and supernatant discarded. Cells were fixed in ice-cold 70% (v/v) ethanol added dropwise and stored at −20°C prior to analysis. Immediately before flow cytometry, cells were pelleted (140 g at 4°C for 5 min), supernatant removed and cells washed twice in 500 µl PBS. 100 µg/ml ribonuclease and 50 µg/ml propidium iodide (Sigma-Aldrich) was added to each sample and incubated for 2–3 h at 37°C. Cells were pelleted (140 g at 4°C for 5 min), supernatant removed and cells washed in 500 µl PBS before being resuspended in 500 µl PBS buffer containing 2.5 mM EDTA. Samples were gated and run at a low flow rate (<1000 events s^−1) on a Fortessa flow cytometer (Becton Dickinson, Oxford, UK) with multi-laser and detection capabilities. The information from 10000 events was collect and data was analyzed using ModFit software (Becton Dickinson).
(H) Quantification of cell cycle ratios after inhibitor treatment. Error bars represent ±SEM (n = 3). ***p<0.001; ****p<0.0001.

MCF-7 cells = test: Flow cytometry analysis of cell cycle progression, breast cancer cells; details: 48 h
Procedure: as §3
(H) Quantification of cell cycle ratios after inhibitor treatment. Error bars represent ±SEM (n = 3).). *p<0.05; **p<0.01; ***p<0.001; ****p<0.0001.

[8] = target: T2, recombinant human CDK1/cyclin B complex; set-up: method as in PMID 16204078; details: relative potency from IC50 values of a previous study; cited from earlier work
[9] = JK-31 10 or 50 µM, vs asynchronous controls

T1 sequence (P35968 20-1356): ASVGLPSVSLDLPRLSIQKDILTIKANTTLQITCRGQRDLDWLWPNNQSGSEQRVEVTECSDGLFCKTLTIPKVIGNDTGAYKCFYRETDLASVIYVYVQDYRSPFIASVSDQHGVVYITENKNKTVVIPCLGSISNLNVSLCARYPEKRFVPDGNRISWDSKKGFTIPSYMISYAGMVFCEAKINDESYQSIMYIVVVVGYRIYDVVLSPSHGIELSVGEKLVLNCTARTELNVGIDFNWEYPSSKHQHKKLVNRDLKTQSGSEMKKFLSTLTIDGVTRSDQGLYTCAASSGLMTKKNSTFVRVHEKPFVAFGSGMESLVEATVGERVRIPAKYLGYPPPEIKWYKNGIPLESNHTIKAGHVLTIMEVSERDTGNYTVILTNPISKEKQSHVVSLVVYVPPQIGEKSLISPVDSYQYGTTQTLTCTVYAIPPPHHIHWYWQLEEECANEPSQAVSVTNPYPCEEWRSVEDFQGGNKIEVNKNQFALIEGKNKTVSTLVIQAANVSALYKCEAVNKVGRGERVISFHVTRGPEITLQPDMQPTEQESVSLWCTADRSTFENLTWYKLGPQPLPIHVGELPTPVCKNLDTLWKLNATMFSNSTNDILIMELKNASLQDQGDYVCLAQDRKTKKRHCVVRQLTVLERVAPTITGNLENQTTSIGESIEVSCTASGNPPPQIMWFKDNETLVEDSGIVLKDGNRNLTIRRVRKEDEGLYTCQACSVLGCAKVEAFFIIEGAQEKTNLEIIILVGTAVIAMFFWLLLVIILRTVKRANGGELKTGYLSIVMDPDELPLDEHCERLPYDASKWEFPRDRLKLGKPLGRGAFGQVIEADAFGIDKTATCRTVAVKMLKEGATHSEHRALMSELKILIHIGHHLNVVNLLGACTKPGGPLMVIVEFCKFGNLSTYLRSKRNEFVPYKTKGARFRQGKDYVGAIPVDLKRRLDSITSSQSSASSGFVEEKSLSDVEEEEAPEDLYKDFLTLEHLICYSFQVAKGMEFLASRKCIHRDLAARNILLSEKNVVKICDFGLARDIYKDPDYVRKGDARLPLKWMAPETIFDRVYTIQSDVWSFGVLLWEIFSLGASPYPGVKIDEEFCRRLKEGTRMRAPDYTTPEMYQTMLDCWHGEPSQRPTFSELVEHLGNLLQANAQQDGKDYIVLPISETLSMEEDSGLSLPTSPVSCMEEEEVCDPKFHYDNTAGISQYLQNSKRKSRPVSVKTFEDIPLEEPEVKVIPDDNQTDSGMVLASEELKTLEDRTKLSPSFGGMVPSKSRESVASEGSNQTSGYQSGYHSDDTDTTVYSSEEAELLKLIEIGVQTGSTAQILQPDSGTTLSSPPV

## CC(C)(C)c1ccc(C(=O)n2nc(Nc3ccccc3)nc2N)cc1 [JK-31, (5-amino-3-(phenylamino)-1H-1,2,4-triazol-1-yl)(4-(tert-butyl)phenyl)methanone]
Recombinant human VEGFR2; [γ-33P]-ATP 10 µM, substrate poly[Glu:Tyr] (4:1), ten-point curves
  pIC50: 6.20
Recombinant human VEGFR2; relative potency from IC50 values
  Selectivity for VEGFR2 than CDK1: ~4 fold
[1]
  pIC50: 5.60
VEGFR2; HUVECs, JK-31 10 µM and above, 30 min pre-treatment, VEGF-A 25 ng/ml 7.5 min
  Inhibition of phosphorylation of residue Y1175 within VEGFR2: > 60%
VEGFR2; HUVECs, JK-31 0.1-50 µM, VEGF-A 25 ng/ml 7.5 min
  VEGF-A-stimulated signal transduction (PLCγ1-pY783, Akt-pS473, ERK1/2-pT202/pY204): inhibited VEGF-A-stimulated signal transduction in a dose-dependent manner
VEGFR2; VEGF-A-stimulated VEGFR2 activation and downstream signaling in endothelial cells vs recombinant kinases
  Cellular IC50 relative to cell-free phosphorylation assay: approximately 10 fold
[2]; aFGF 50 ng/ml 10 min
  ERK1/2 phosphorylation in response to aFGF: dose-dependent inhibition
[2]; bFGF 50 ng/ml 10 min
  ERK1/2 phosphorylation in response to bFGF: dose-dependent inhibition
IGF-1-mediated signaling
  ERK1/2 phosphorylation in response to IGF-1: not in response to either EGF or IGF-1
[3]
  Inhibition of radial angiogenic sprout formation: more than 40%
HUVECs [4]; 10 µM, bFGF 20 ng/ml
  Reduction of bFGF-stimulated branching: more than 90%
HUVECs [4]; 10 µM, in the presence of VEGF-A
  Endothelial tubule phenotype: aberrant hyper-branched endothelial tubule phenotype
HUVECs [4]; 50 µM, VEGF-A 10 ng/ml, seven days
  Reduction in branching (VEGF-A): more than 80%
HUVECs [4]; 50 µM, bFGF 20 ng/ml
  Reduction of bFGF-stimulated branching: more than 90%
HUVECs [4]; 168 h, 10 µM, VEGF-A 10 ng/ml, seven days, read-out: Inhibition of VEGF-A-stimulated endothelial tube formation
  inhibition at 10 µM: ~35%
HUVECs [4]; 168 h, 50 µM, VEGF-A 10 ng/ml, seven days, read-out: Inhibition of VEGF-A-stimulated endothelial tube formation
  inhibition at 50 µM: > 80%
HUVECs [4]; 10 µM, bFGF 20 ng/ml, read-out: Inhibition of bFGF-stimulated endothelial tube formation
  inhibition at 10 µM: ~75%
HUVECs [4]; 50 µM, bFGF 20 ng/ml, read-out: Inhibition of bFGF-stimulated endothelial tube formation
  inhibition at 50 µM: > 95%
HUVECs [5]; VEGF-A 25 ng/ml
  VEGF-A-stimulated wound closure: completely inhibited
HUVECs [5]; full growth medium
  Wound closure in full growth medium: only partially inhibited
HUVECs [6]
  Cytotoxic effects on endothelial cells (cell viability, MTS): no significant cytotoxic effects
HUVECs [7]; JK-31 10 or 50 µM
  Number of cells present in G1: significant increase in the number of cells present in G1
HUVECs [7]; [9]
  Proportion of cells in G2/M phase: significant decrease in the proportion of cells in the G2/M phase
HUVECs [7]; JK-31 treatment
  Number of cells present in S phase: not a significant change
MCF-7 cells; JK-31 10 or 50 µM
  Number of cells present in G1: significant increase in the number of cells present in G1
MCF-7 cells; [9]
  Proportion of cells in G2/M phase: significant decrease in the proportion of cells in the G2/M phase
MCF-7 cells; JK-31 treatment
  Number of cells present in S phase: significantly decreased

## Nc1nc(Nc2ccc(S(N)(=O)=O)cc2)nn1C(=O)c1c(F)cccc1F [JNJ-7706621]
[8]
  More potent inhibitor of CDK1 than VEGFR2: ~17 fold
